For one assay, the target named is T1, mouse TRPV2 (mTRPV2) (Mus musculus, UniProt Q9WTR1).
T1 construct: expressed in transfected cells
T1 sequence (Q9WTR1 1-756): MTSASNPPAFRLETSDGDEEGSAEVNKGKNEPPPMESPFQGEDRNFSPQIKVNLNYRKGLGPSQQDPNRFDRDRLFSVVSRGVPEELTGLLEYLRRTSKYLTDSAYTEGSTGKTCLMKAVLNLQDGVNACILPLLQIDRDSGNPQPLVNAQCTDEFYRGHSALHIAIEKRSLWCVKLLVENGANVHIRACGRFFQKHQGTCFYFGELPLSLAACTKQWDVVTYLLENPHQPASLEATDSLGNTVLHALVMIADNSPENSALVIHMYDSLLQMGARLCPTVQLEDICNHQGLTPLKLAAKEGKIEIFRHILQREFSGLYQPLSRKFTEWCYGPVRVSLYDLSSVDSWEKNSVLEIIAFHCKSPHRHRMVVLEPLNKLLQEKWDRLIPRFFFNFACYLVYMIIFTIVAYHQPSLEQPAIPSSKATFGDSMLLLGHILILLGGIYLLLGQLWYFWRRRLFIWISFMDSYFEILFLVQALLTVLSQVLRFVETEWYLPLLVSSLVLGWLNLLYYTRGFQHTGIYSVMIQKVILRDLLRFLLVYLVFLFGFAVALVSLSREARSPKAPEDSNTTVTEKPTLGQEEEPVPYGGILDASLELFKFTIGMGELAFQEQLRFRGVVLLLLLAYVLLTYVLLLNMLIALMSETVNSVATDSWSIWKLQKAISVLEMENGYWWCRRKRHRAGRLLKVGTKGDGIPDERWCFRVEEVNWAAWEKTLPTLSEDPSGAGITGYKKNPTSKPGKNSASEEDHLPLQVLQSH
Briefly: 2-APB-induced increase in [Ca2+]i in HEK293 cells expressing mTRPV2 (fura-2, microplate reader / imaging). In kind it is cell-based. The note with it: for Ca2+ responses elicited by TRPV2 agonists (initial assessment): cell-based assay, before optimisation of conditions; for IC50 / inhibition of the 2-APB-induced increase in [Ca2+]i: HEK293 cells expressing mTRPV2, 2-APB 0.3 mM, CaCl2 5 mM, pH 6.5; for IC50: read-out: IC50 for the 2-APB-induced increase in [Ca2+]i (Ca2+ response); for inhibition of the 2-APB-induced increase in [Ca2+]i: concentrations up to 100 μM. As to the method: HEK293 cells expressing mouse TRPV2 (mTRPV2) and non-transfected HEK293 cells were loaded with fura-2-AM and placed in low CaCl2 medium (0.5 mM).
For the drug screening, we designed a method involving measurement of the Ca^2+ response using a 96-well high-throughput plate-reader. Cells were placed in low CaCl2 (0.5 mM) medium, which was replaced with high CaCl2 medium (5 mM) with or without the TRPV agonist 2-APB and adjusted to various pH values.
(§1) [Ca^2+]i was measured by a ratiometric fluorescence method as previously described. Briefly, HEK293 cells were loaded with 4 μM fura-2-AM for 30 min at 37° C and maintained in balanced salt solution (BSS) (146 mM NaCl, 4 mM KCl, 2 mM MgCl2, 0.5 mM CaCl2, 10 mM glucose, 0.1% bovine serum albumin, and 10 mM HEPES/Tris, pH 7.4). Fura-2-AM fluorescence was measured using an Aquacosmos fluorescence image processor (Hamamatsu Photonics, Hamamatsu, Japan). The time-course data are presented as the ratio of fluorescence at an excitation wavelength of 340 nm to that at 380 nm. The increase in the fluorescence ratio induced by the TRPV2 agonist 2-APB or high extracellular Ca^2+ (ΔR) was normalized to the initial ratio (R0) before stimulation. The fluorescence relative ratio (ΔR/R0) was plotted as the summary data in the fluorescence imaging analysis.
For screening, cells were plated in 96-well plates and the fura-2-AM fluorescence ratio at excitation wavelengths of 340 nm and 380 nm was monitored using a GENios Pro microplate reader (Tecan, Research Triangle Park, NC, USA) or POLARstar Omega (BMG Labtech, Germany). Cells were stimulated in BSS containing 5 mM CaCl2. […] All Ca^2+ measurements were carried out at room temperature. […] For simplicity, the results are presented as normalized values (% maximum) from the microplate reader experiment.

The target in the next assay is T2, hTRPC1 (Homo sapiens, UniProt P48995).
T2 construct: expressed in transfected cells; host or cells: HEK293 cells
Briefly: Store-operated Ca2+ entry after thapsigargin in hTRPC1-transfected HEK293 cells. The note with it: hTRPC1-transfected HEK293 cells; thapsigargin; compound 100 μM. Type of assay: cell-based. As to the method:
Figure 4 Effects of inhibitor compounds on the Ca^2+ response of cells expressing hTRPV1, hTRPV2, or hTRPC1 (A) Effect of compounds on CaCl2 (5 mM)-induced peak fluorescence ratio in non-transfected (nt) or hTRPV2-transfected CHO cells. The extracellular Ca^2+-dependent increase in the ratio of fura-2 fluorescence intensity at 340/380 nm (ΔR, 2 min after addition of chemicals) was plotted as ΔR/R0 after normalising to the initial fluorescence ratio (R0). […] Solid bar, no inhibitor. (B) Effect of compounds on 2-APB (1 mM)/high extracellular CaCl2-induced peak fluorescence ratio in nt or hTRPV1-transfected HEK293 cells. […] (C) Effect of compounds on store-operated Ca^2+ entry in nt or hTRPC1-transfected HEK293 cells. Cells were treated with the endoplasmic reticulum Ca^2+ pump inhibitor thapsigargin and exposed to CaCl2 and the indicated compounds. ΔR was measured 2 min after the addition of CaCl2. […] Data are shown as mean ± SD (n = 5).
as §1, with “Briefly, HEK293 cells were loaded with 4 μM fura-2-AM for 30 min at 37° C and maintained in balanced salt solution (BSS) (146 mM NaCl, 4 mM KCl, 2 mM MgCl2, 0.5 mM CaCl2, 10 mM glucose, 0.1% bovine serum albumin, and 10 mM HEPES/Tris, pH 7.4).” left out

In assay [1] the test system is TRPV2. Details: method as in PMID 17673572. The note with it: cited from earlier work.
A further assay relates to J2N-k myocytes. As to the kind of experiment: Stretch-induced CK release from J2N-k myocytes. In kind it is cell-based, hamster. The settings on record: 500 μM, 30 min pretreatment, cyclic stretch 20% elongation 1 h. As to the method:
(§2) Creatine phosphokinase (CK) activity in the medium was determined using an in vitro colorimetric assay kit (CK Test Kit; Wako Pure Chemical Industries, Ltd., Osaka, Japan) according to the manufacturer's protocol The cTN-I level in the serum was measured, while quantitative immunoblotting and immunocytochemistry were performed as previously described. Protein concentration was measured using the bicinchoninic acid assay (Pierce Chemical Co., Rockford, IL, USA) with bovine serum albumin as the standard. All histochemical and physiological analyses were performed by investigators blinded to the drug treatments. Unless otherwise stated, results are presented as the mean ± SD of at least 5 determinations. The unpaired Student's t-test and one-way ANOVA followed by Dunnett's test were used to analyse the data. Values of P < 0.05 (indicated as asterisks in the figures) were considered statistically significant. All cellular measurements were repeated at least 5 times. Representative data are shown.

In assay [2] the test system is cardiomyopathic J2N-k hamsters. Briefly: Cardiomyopathy in J2N-k hamsters in vivo (echocardiography, serum cTN-I, Masson's trichrome fibrosis). Details: species or system hamster. The note with it: 300 mg/kg/day mixed with feed, 3 weeks. The protocol: Male δ-SG-deficient cardiomyopathic J2N-k and age-matched wild-type J2N-n hamsters (9 weeks old) were purchased from Japan SLC, Inc. (Shizuoka, Japan). Tranilast was ingested mixed with feed (300 mg/kg/day) as described previously, whereas other drugs (Figure 1) were administered orally in the drinking water at doses of 30 mg/kg (except lumin) per day for 3 weeks. In case of lumin, we first performed dose-dependent experiment at dose of 1,10 and100 mg/kg per day for 3 weeks, in order to determine the effective dose. […] After drug treatment, serum cardiac troponin (cTN)-I was measured and echocardiography analysis was performed. Histochemistry of cardiac muscles was performed as previously described. All animal experiments were performed according to the Guidelines for Animal Experimentation of the National Cerebral and Cardiovascular Center Research Institute.
Ventricles were fixed in phosphate-buffered saline containing 10% formalin and embedded in paraffin. Serial sections were cut at a thickness of 5 μm and stained with Masson's trichrome stain for morphological analysis. Sections were viewed under a BX41 light microscope (Olympus, Tokyo, Japan). Images were acquired with an FX380 digital camera (Olympus) and analysed using an FLVFS-LS imaging system (Flovel, Tokyo, Japan).
Fibrosis was assessed by measuring Masson's trichrome-positive areas. Briefly, colour images were converted to binary form by setting the threshold value so as to detect only blue-stained fibrotic areas, which were summed and reported as a percentage of the total.
Cardiac function was evaluated by echocardiography using a Sonos5500 ultrasound system (Hewlett-Packard, Palo Alto, CA, USA) with a 12-MHz transducer and M-mode imaging. The animals were sedated with tribromoethanol (350 mg/kg by intraperitoneal injection) during the process.
as §2

In a further assay the target is T3, mTRPV2 channel (Mus musculus, UniProt Q9WTR1).
T3 construct: expressed in transfected cells
T3 sequence (Q9WTR1 1-756): T1 sequence (Q9WTR1 1-756)
As to the kind of experiment: Whole-cell patch clamp of 2-APB-evoked mTRPV2 current in HEK293 cells. In kind it is cell-based. The note with it: tranilast 100 μM; 200 μM 2-APB; data not shown. The protocol:
The fluorescence ratio was measured by a microplate reader and normalized by the maximal value. Data are shown as mean ± SD (n = 5). […] The current values at −100 mV measured by an every-2-second ramp protocol were plotted. […] The current waveforms of the control cells and the cells 11 minutes after application of 15 μM lumin were superimposed. The L-type Ca^2+ channel currents were elicited by depolarizing pulses of 0 mV for 200 milliseconds from −80 mV.
TRPV2 currents were recorded under voltage-clamp conditions by the whole-cell patch-clamp technique. Patch pipettes (2–5 MΩ) were filled with an intracellular solution containing 110 mM K-aspartate, 30 mM KCl, 10 mM NaCl, 1 mM MgCl2, 10 mM BAPTA, 10 mM HEPES, and 3 mM MgATP (adjusted to pH 7.2 with KOH). The extracellular solution contained 145 mM NaCl, 5 mM KCl, 1.5 mM MgCl2, 1 mM EGTA, 10 mM HEPES, and 10 mM glucose (pH was adjusted to 6.5 with NaOH). Because TRPV2 was reported to desensitize in the presence of extracellular Ca^2+ [41], we used nominally Ca^2+-free medium containing 1 mM EGTA to prevent desensitization. In the experiments confirming the pH dependence of the response, the pH was adjusted to 7.4. In the whole-cell recordings, the membrane potential of the cell was held at −60 mV, while voltage ramps of 400 ms from −100 mV to +60 mV were applied every 2 seconds. Currents through the electrode were recorded at 5 kHz and filtered at 2 kHz by an Axopatch 200B amplifier (Molecular Devices, LLC, Sunnyvale, CA, USA). The junctional potential was −11.7 mV.

For assay [3], the system named is TRPV2. More on the design: method as in PMID 21147993. The note with it: TRPV2-transfected HEK293 cells; cited from earlier work.

Here are results for ten compounds from paper PMC5865651, “Novel inhibitor candidates of TRPV2 prevent damage of dystrophic myocytes and ameliorate against dilated cardiomyopathy in a hamster model” (Oncotarget, 2018).

T2 sequence (P48995 whole entry): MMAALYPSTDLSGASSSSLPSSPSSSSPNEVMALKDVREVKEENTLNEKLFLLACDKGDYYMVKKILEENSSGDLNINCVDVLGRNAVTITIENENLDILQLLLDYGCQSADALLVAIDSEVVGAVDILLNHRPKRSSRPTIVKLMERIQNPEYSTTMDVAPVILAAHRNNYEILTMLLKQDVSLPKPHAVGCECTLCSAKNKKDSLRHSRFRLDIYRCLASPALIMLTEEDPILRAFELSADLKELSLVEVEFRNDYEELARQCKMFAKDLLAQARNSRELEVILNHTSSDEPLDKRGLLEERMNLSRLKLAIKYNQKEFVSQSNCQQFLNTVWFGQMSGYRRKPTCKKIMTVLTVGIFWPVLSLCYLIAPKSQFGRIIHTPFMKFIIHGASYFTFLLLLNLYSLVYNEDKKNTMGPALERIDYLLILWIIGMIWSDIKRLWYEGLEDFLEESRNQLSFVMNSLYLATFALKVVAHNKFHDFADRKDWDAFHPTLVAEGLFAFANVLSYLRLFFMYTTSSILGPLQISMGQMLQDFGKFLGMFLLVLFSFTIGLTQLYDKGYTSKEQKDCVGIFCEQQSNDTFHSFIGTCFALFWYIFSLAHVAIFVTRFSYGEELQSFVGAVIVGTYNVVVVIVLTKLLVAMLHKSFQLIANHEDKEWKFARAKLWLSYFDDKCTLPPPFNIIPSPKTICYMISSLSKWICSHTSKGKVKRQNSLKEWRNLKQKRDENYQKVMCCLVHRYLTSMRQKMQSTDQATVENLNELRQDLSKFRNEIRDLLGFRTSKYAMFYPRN

With `C=C(C)[C@@H]1CCC(C)=C[C@H]1c1c(O)cc(CCCCC)cc1O` [cannabidiol], the “Ca2+ responses elicited by TRPV2 agonists (initial assessment)” value at mouse TRPV2 (mTRPV2) is recorded as “too small”.
As to `COc1ccc(CCCOC(Cn2ccnc2)c2ccc(OC)cc2)cc1` (stereo not drawn) [SKF96365, 1-[β-[3-(4-methoxyphenyl)propoxy]-4-methoxyphenethyl]-1H-imidazole], the IC50 on mouse TRPV2 (mTRPV2) was at least 10 µM. Further, the “effect on store-operated increase in [Ca2+]i” value at hTRPC1 is listed as “strongly inhibited”.
Consider `CC(C)c1ccc(C(=O)NC(=N)N)cc1S(C)(=O)=O` [cariporide], for which the “inhibition of the 2-APB-induced increase in [Ca2+]i” value against mouse TRPV2 (mTRPV2) is given as “did not inhibit”.
With `Nc1ccncc1` [4-amino-pyridine], the “effective doses for inhibition of TRPV2 activation” value (shortened to “effective doses for inhibition”) in the assay with TRPV2 [1] was 100 to 1000 µM.
For `FC(F)(F)c1ccccc1-n1ccnc1` [1-(2-(trifluoromethyl)phenyl)imidazole], the “effective doses for inhibition” value in the assay on TRPV2 [1] is 100 to 1000 µM.
For `CCCN(CCC)S(=O)(=O)c1ccc(C(=O)O)cc1` [probenecid], at mouse TRPV2 (mTRPV2), the “Ca2+ responses elicited by TRPV2 agonists (initial assessment)” value is “too small”.
`COc1ccc(/C=C/C(=O)Nc2ccccc2C(=O)O)cc1OC` [tranilast, N-[3,4-dimethoxycinnamonyl]-anthranilic acid]: the “reduction of stretch-induced CK release” value in the assay on J2N-k myocytes is listed as “up to 70%”. In addition, in assay [2], the “effect on fibrosis (Masson's trichrome)” value is listed as “prevented fibrosis”, the “effect on fractional shortening (FS)” value is given as “prevented”, the “effect on left ventricular end-diastolic dimension (LVDd)” value is recorded as “small effect” and the “effect on left ventricular end-systolic dimension (LVDs)” value is given as “prevented the increase”. Further, the “effect on serum level of cTN-I” value in assay [2] is “reduced”. Further, the IC50 at mouse TRPV2 (mTRPV2) was at least 10 µM. Moreover, the “effect on TRPV2 channel activity” value at mTRPV2 channel is given as “did not inhibit”. Further, in the assay on TRPV2 [3], the “effect on pressure-induced inward current” value is reported as “blocked”.
For `COc1ccc([C@@H]2Sc3ccccc3N(CCN(C)C)C(=O)[C@@H]2OC(C)=O)cc1` [diltiazem], the “inhibition of the 2-APB-induced increase in [Ca2+]i” value on mouse TRPV2 (mTRPV2) is “did not inhibit”.
Same read-out and setting: the entry for `[H]/N=C(/N)N[C@H]1[C@H](O)[C@@H](O)[C@H](O[C@@H]2O[C@@H](C)[C@](O)(C=O)[C@H]2O[C@@H]2O[C@@H](CO)[C@H](O)[C@@H](O)[C@@H]2NC)[C@@H](N/C(N)=N\[H])[C@@H]1O` [streptomycin] is “did not inhibit”.
For `CC[N+](CC)(CC)CC` [tetraethylammonium], the “effective doses for inhibition” value in the assay with TRPV2 [1] was 100 to 1000 µM.
